Measurements published in ChEMBL document CHEMBL5523677, “Discovery of ASP6918, a KRAS G12C inhibitor: Synthesis and structure-activity relationships of 1-{2,7-diazaspiro[3.5]non-2-yl}prop-2-en-1-one derivatives as covalent inhibitors with good potency and oral activity for the treatment of solid tumors” (Bioorg Med Chem, 2024).
pIC50: −log10 of the molar value.

Key:
NCI-H1373 [1] = assay: Antitumor activity against KRAS G12C-positive human NCI-H1373 cells xenografted in male nude mouse assessed as inhibition of tumor growth at 10 mg/kg, po administered once daily for 13 days and measured on day 14 relative to control; format: functional; conditions: NCI-H1373, 336 h, time 14 day, read-out: TGI
NCI-H1373 [2] = assay: Antitumor activity against KRAS G12C mutant positive human NCI-H1373 cells xenografted in male nude mouse assessed as inhibition of tumor growth at 10 mg/kg, sc administered once daily for 13 days and measured on day 14 relative to control; format: functional; conditions: NCI-H1373, 336 h, time 14 day, read-out: TGI
[3] = Inhibition of ERK phosphorylation in human A-375 cells harboring wild type KRAS and mutant BRAF incubated for 2 hrs by ELISA; format: cell-based; conditions: A-375, 2 h
NCI-H1373 [4] = assay: Antitumor activity against KRAS G12C-positive human NCI-H1373 cells xenografted in male nude mouse assessed as inhibition of tumor growth at 60 mg/kg, po administered once daily for 13 days and measured on day 14 relative to control; format: functional; conditions: NCI-H1373, 336 h, time 14 day, read-out: TGI
[5] = In vivo inhibition of ERK phosphorylation in male nude mouse xenografted with KRAS G12C mutant positive human NCI-H1373 cells assessed as reduction in pERK level in tumor at 3 mg/kg, sc administered as single dose and measured after 6 hrs relative to control; format: functional
[6] = Lipophilicity, LogD of compound in 1-Octanol/PBS at pH 7.4 by LC-MS analysis; format: physicochemical
NCI-H1373 [7] = assay: Antitumor activity against KRAS G12C mutant positive human NCI-H1373 cells xenografted in male nude mouse assessed as tumor regression at 10 mg/kg, sc administered once daily for 13 days and measured on day 14 relative to control; format: functional; conditions: time 14 day
[8] = Drug concentration in plasma of male nude mouse xenografted with KRAS G12C mutant positive human NCI-H1373 cells at 3 mg/kg, sc administered as single dose and measured after 6 hrs; format: ADME, organism-based
[9] = Aqueous solubility of compound in Japanese Pharmacopoeia 2nd fluid at pH 6.8 at 130 umol/L incubated for 20 hrs by liquid chromatography; format: physicochemical; conditions: dose 130 µmol/L
[10] = In vivo inhibition of ERK phosphorylation in male nude mouse xenografted with KRAS G12C mutant positive human NCI-H1373 cells assessed as reduction in pERK level in tumor at 20 mg/kg, po administered as single dose and measured after 6 hrs relative to control; format: functional
[11] = In vivo inhibition of ERK phosphorylation in male nude mouse xenografted with KRAS G12C mutant positive human NCI-H1373 cells assessed as reduction in pERK level in tumor at 60 mg/kg, po administered as single dose and measured after 6 hrs relative to control; format: functional
[12] = Drug concentration in tumor of male nude mouse xenografted with KRAS G12C mutant positive human NCI-H1373 cells at 3 mg/kg, sc administered as single dose and measured after 6 hrs; format: ADME, organism-based, Neoplasm; conditions: read-out: Ct
[13] = Drug concentration in plasma of male nude mouse xenografted with KRAS G12C mutant positive human NCI-H1373 cells at 20 mg/kg, po administered as single dose and measured after 6 hrs; format: ADME, organism-based
[14] = Toxicity in male nude mouse xenografted with KRAS G12C-positive human NCI-H1373 cells assessed as reduction in body weight at 10 to 60 mg/kg, po administered once daily for 13 days; format: organism-based; conditions: in vivo, 312 h, dose 10-60 mg/kg, time 13 day
[15] = Inhibition of ERK phosphorylation in KRAS-G12C mutant positive human NCI-H1373 cells incubated for 2 hrs by ELISA; format: cell-based
NCI-H1373 [16] = assay: Antitumor activity against KRAS G12C mutant positive human NCI-H1373 cells xenografted in male nude mouse assessed as inhibition of tumor growth at 3 mg/kg, sc administered once daily for 13 days and measured on day 14 relative to control; format: functional; conditions: NCI-H1373, 336 h, time 14 day, read-out: TGI
NCI-H1373 [17] = assay: Antitumor activity against KRAS G12C-positive human NCI-H1373 cells xenografted in male nude mouse assessed as tumor regression at 60 mg/kg, po administered once daily for 13 days and measured on day 14 relative to control; format: functional; conditions: time 14 day
NCI-H1373 [18] = assay: Antitumor activity against KRAS G12C-positive human NCI-H1373 cells xenografted in male nude mouse assessed as inhibition of tumor growth at 40 mg/kg, po administered once daily for 13 days and measured on day 14 relative to control; format: functional; conditions: NCI-H1373, 336 h, time 14 day, read-out: TGI
[19] = Drug concentration in tumor of male nude mouse xenografted with KRAS G12C mutant positive human NCI-H1373 cells at 20 mg/kg, po administered as single dose and measured after 6 hrs; format: ADME, organism-based, Neoplasm; conditions: read-out: Ct
NCI-H1373 [20] = assay: Cytotoxicity against KRAS G12C mutant positive human NCI-H1373 cells assessed as inhibition of cell growth incubated for 6 days by Celltiter-Glo 2.0 assay; format: functional, cell-based
[21] = Metabolic stability in mouse liver microsomes assessed as intrinsic clearance at 0.1 to 0.2 micromol/L incubated for 30 mins in presence of NADPH-generating system by LC-MS/MS analysis; format: ADME, Microsome; conditions: dose 0.1-0.2 µmol/L, read-out: CLH
NCI-H1373 [22] = assay: Antitumor activity against KRAS G12C-positive human NCI-H1373 cells xenografted in male nude mouse assessed as inhibition of tumor growth at 20 mg/kg, po administered once daily for 13 days and measured on day 14 relative to control; format: functional; conditions: NCI-H1373, 336 h, time 14 day, read-out: TGI
[23] = Drug concentration in plasma of male nude mouse xenografted with KRAS G12C mutant positive human NCI-H1373 cells at 60 mg/kg, po administered as single dose and measured after 6 hrs; format: ADME, organism-based
[24] = Drug concentration in plasma of male nude mouse xenografted with KRAS G12C mutant positive human NCI-H1373 cells at 40 mg/kg, po administered as single dose and measured after 6 hrs; format: ADME, organism-based
[25] = In vivo inhibition of ERK phosphorylation in male nude mouse xenografted with KRAS G12C mutant positive human NCI-H1373 cells assessed as reduction in pERK level in tumor at 40 mg/kg, po administered as single dose and measured after 6 hrs relative to control; format: functional
NCI-H1373 [26] = assay: Antitumor activity against KRAS G12C-positive human NCI-H1373 cells xenografted in male nude mouse assessed as tumor regression at 40 mg/kg, po administered once daily for 13 days and measured on day 14 relative to control; format: functional; conditions: time 14 day
[27] = Drug concentration in tumor of male nude mouse xenografted with KRAS G12C mutant positive human NCI-H1373 cells at 40 mg/kg, po administered as single dose and measured after 6 hrs; format: ADME, organism-based, Neoplasm; conditions: read-out: Ct
[28] = Metabolic stability in human liver microsomes assessed as intrinsic clearance at 0.1 to 0.2 micromol/L incubated for 30 mins in presence of NADPH-generating system by LC-MS/MS analysis; format: ADME, Microsome; conditions: dose 0.1-0.2 µmol/L, read-out: CLH
[29] = Drug concentration in tumor of male nude mouse xenografted with KRAS G12C mutant positive human NCI-H1373 cells at 60 mg/kg, po administered as single dose and measured after 6 hrs; format: ADME, organism-based, Neoplasm; conditions: read-out: Ct
[30] = Inhibition of biotinylated GDP-bound Avi-tagged KRAS G12C mutant (1 to 185 residues)/SOS/GST-tagged c-Raf (unknown origin) complex formation incubated for 1 hr in presence of GTP by fluorescence based analysis; design: species or system Homo sapiens

C=CC(=O)N1CC2(CCN(c3nc(OC4CCN(C)CC4)nc4c(OCC)c(-c5c(C)ccc6[nH]ncc56)c(C=C)cc34)CC2)C1
inhibition in vivo at 10 mg/kg (NCI-H1373 [1]): 27% | inhibition in vivo at 10 mg/kg (NCI-H1373 [2]): > 100% | pIC50 [3]: < 5.00 | inhibition in vivo at 60 mg/kg (NCI-H1373 [4]): > 100% | inhibition in vivo at 3 mg/kg [5]: 72% | logD [6]: 3.7 | Activity (NCI-H1373 [7]): 73% | concentration at 6 h [8]: 280 nM | solubility at 20 h, 130 µM [9]: > 100 µM | inhibition in vivo at 20 mg/kg [10]: 38% | inhibition in vivo at 60 mg/kg [11]: 80% | concentration at 6 h [12]: 170 nM | concentration at 6 h [13]: 21 nM | Activity [14]: Non-Toxic | pIC50 ([15]; Homo sapiens, NCI-H1373, 2 h): 8.30 | pIC50 ([15]; nci-h1373): 8.40 | inhibition in vivo at 3 mg/kg (NCI-H1373 [16]): 82% | Activity (NCI-H1373 [17]): 73% | inhibition in vivo at 40 mg/kg (NCI-H1373 [18]): > 100% | concentration at 6 h [19]: 7 nM | pIC50 (NCI-H1373 [20]; Homo sapiens, NCI-H1373, 144 h): 8.10 | pIC50 (NCI-H1373 [20]; nci-h1373): 8.22 | CLint scaled [21]: 119 mL/min/kg | inhibition in vivo at 20 mg/kg (NCI-H1373 [22]): 68% | concentration at 6 h [23]: 110 nM | concentration at 6 h [24]: 120 nM | inhibition in vivo at 40 mg/kg [25]: 72% | Activity (NCI-H1373 [26]): 49% | concentration at 6 h [27]: 50 nM | CLint scaled [28]: 130 mL/min/kg | concentration at 6 h [29]: 81 nM

C=CC(=O)N1CC2(CCN(c3nc(OC4CCN(CC)CC4)nc4c(F)c(-c5c(C)ccc6[nH]ncc56)c(-c5ccccc5)cc34)CC2)C1
pIC50 [30]: < 6.00

C=CC(=O)N1CC2(CCN(c3nc(OC4CCN(CC)CC4)nc4c(F)c(-c5c(C)ccc6[nH]ncc56)c(CC)cc34)CC2)C1
pIC50 [30]: 7.23 | pIC50 ([15]; Homo sapiens, NCI-H1373, 2 h): 6.80

C=CC(=O)N1CC2(CCN(c3nc(OC4CCN(CC)CC4)nc4cc(-c5c(C)ccc6[nH]ncc56)c(Cl)cc34)CC2)C1
pIC50 [30]: 6.60

C=CC(=O)N1CC2(CCN(c3nc(OC4CCN(CC)CC4)nc4c(OC5CCC5)c(-c5c(C)ccc6[nH]ncc56)c(Cl)cc34)CC2)C1
pIC50 [30]: 7.24 | pIC50 ([15]; Homo sapiens, NCI-H1373, 2 h): 7.46

C#Cc1cc2c(N3CCC4(CC3)CN(C(=O)C=C)C4)nc(OC3CCN(CC)CC3)nc2c(F)c1-c1c(C)ccc2[nH]ncc12
pIC50 [30]: 7.25 | pIC50 ([15]; Homo sapiens, NCI-H1373, 2 h): 6.92

C=CC(=O)N1CC2(CCN(c3nc(OC4CCN(C)CC4)nc4c(OC5CCC5)c(-c5c(C)ccc6[nH]ncc56)c(C=C)cc34)CC2)C1
pIC50 [3]: < 5.00 | logD [6]: > 4.3 | solubility at 20 h, 130 µM [9]: > 100 µM | pIC50 ([15]; Homo sapiens, NCI-H1373, 2 h): 8.30 | pIC50 (NCI-H1373 [20]; Homo sapiens, NCI-H1373, 144 h): 7.92 | CLint scaled [21]: 342 mL/min/kg

C=CC(=O)N1CC2(CCN(c3nc(OC4CCN(CC)CC4)nc4c(F)c(-c5c(C)ccc6[nH]ncc56)c(C=C)cc34)CC2)C1
pIC50 [30]: 7.39 | pIC50 ([15]; Homo sapiens, NCI-H1373, 2 h): 7.43

C=CC(=O)N1CC2(CCN(c3nc(OC4CCN(CC)CC4)nc4c(F)c(-c5c(C)ccc6[nH]ncc56)c(C(=C)C)cc34)CC2)C1
pIC50 [30]: 7.00 | pIC50 ([15]; Homo sapiens, NCI-H1373, 2 h): 6.85

C=CC(=O)N1CC2(CCN(c3nc(OC4CCN(C)CC4)nc4c(OC)c(-c5c(C)ccc6[nH]ncc56)c(C=C)cc34)CC2)C1
pIC50 [3]: < 5.00 | logD [6]: 3.2 | pIC50 ([15]; Homo sapiens, NCI-H1373, 2 h): 7.41 | pIC50 (NCI-H1373 [20]; Homo sapiens, NCI-H1373, 144 h): 7.28

C=CC(=O)N1CC2(CCN(c3nc(OC4CCN(CC)CC4)nc4c(C#N)c(-c5c(C)ccc6[nH]ncc56)c(Cl)cc34)CC2)C1
pIC50 [30]: 6.55

C=CC(=O)N1CC2(CCN(c3nc(OC4CCN(C)CC4)nc4c(Cl)c(-c5c(C)ccc6[nH]ncc56)c(F)cc34)CC2)C1
pIC50 [3]: < 5.00 | logD [6]: 3.3 | solubility at 20 h, 130 µM [9]: > 100 µM | pIC50 ([15]; Homo sapiens, NCI-H1373, 2 h): 7.02 | pIC50 (NCI-H1373 [20]; Homo sapiens, NCI-H1373, 144 h): 7.00 | CLint scaled [21]: 115 mL/min/kg

C=CC(=O)N1CC2(CCN(c3nc(OC4CCN(CC)CC4)nc4c(OC5CC5)c(-c5c(C)ccc6[nH]ncc56)c(Cl)cc34)CC2)C1
pIC50 [30]: 7.25 | pIC50 ([15]; Homo sapiens, NCI-H1373, 2 h): 7.46

C=CC(=O)N1CC2(CCN(c3nc(OC4CCN(CC)CC4)nc4c(OCC)c(-c5c(C)ccc6[nH]ncc56)c(Cl)cc34)CC2)C1
pIC50 [30]: 7.30 | pIC50 ([15]; Homo sapiens, NCI-H1373, 2 h): 7.31

C=CC(=O)N1CC2(CCN(c3nc(OC4CCN(CC)CC4)nc4c(F)c(-c5c(C)ccc6[nH]ncc56)c(C5CC5)cc34)CC2)C1
pIC50 [30]: 7.29 | pIC50 ([15]; Homo sapiens, NCI-H1373, 2 h): 7.51

C=CC(=O)N1CC2(CCN(c3nc(OC4CCN(CC)CC4)nc4c(OC)c(-c5c(C)ccc6[nH]ncc56)c(Cl)cc34)CC2)C1
pIC50 [30]: 7.34 | pIC50 ([15]; Homo sapiens, NCI-H1373, 2 h): 7.12
